According to patent publication US20250215030A1, “STAT MODULATORS AND USES THEREOF” (Recludix Pharma, Inc., priority 2022, published 2025):

What was measured:
[1] = target: T1, pSTAT6 (pY641-STAT6) (Homo sapiens, UniProt P42226); experiment: MSD-pSTAT-PBMC Assay (pSTAT6, IL-4 stimulated); format: cell-based; conditions: compound 3 hrs, then 1 ng/mL IL-4 for 10 min
T1 construct: host or cells: cryopreserved PBMC
T1 sequence (P42226 1-847): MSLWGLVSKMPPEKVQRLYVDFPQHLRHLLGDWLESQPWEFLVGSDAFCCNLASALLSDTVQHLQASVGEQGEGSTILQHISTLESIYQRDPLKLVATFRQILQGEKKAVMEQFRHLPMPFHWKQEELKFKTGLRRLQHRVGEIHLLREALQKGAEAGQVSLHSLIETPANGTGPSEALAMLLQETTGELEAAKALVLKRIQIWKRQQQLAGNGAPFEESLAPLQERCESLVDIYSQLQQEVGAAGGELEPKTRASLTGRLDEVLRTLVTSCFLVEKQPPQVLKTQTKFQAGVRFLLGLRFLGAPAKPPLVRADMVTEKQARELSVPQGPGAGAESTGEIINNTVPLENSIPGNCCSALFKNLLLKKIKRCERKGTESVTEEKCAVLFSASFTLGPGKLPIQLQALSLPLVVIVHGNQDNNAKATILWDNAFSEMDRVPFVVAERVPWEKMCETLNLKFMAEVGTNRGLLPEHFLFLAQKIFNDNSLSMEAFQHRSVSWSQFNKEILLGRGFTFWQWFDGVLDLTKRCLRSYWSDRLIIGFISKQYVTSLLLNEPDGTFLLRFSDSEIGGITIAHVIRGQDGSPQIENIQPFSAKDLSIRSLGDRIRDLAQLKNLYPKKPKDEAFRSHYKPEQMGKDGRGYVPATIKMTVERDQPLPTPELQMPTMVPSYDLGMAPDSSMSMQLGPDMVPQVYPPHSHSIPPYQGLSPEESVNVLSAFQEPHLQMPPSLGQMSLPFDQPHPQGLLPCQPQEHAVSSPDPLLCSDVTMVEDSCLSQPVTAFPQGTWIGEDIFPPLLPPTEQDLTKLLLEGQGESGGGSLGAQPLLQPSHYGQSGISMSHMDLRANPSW
In short: (§1)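 Phospho-STAT levels captured on anti-STAT3 or anti-STAT6 plates and detected with anti-pY705 or anti-pY641 antibodies (MSD read-out). Cryopreserved human PBMCs received compound for 3 h before a 10 min pulse of IL-6 (10 ng/mL, STAT3) or IL-4 (1 ng/mL, STAT6). IC50 fitted after unstimulated-background subtraction and DMSO normalization.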

[2] = target: T2, pSTAT3 (pY705-STAT3) (Homo sapiens, UniProt P40763); experiment: MSD-pSTAT-PBMC Assay (pSTAT3, IL-6 stimulated); format: cell-based; conditions: PBMC, compound 3 hrs, then 10 ng/mL IL-6 for 10 min; MSD pY705-STAT3; read-out: pSTAT3
T2 construct: host or cells: cryopreserved PBMC
In short: as §1

T2 sequence (P40763 whole entry): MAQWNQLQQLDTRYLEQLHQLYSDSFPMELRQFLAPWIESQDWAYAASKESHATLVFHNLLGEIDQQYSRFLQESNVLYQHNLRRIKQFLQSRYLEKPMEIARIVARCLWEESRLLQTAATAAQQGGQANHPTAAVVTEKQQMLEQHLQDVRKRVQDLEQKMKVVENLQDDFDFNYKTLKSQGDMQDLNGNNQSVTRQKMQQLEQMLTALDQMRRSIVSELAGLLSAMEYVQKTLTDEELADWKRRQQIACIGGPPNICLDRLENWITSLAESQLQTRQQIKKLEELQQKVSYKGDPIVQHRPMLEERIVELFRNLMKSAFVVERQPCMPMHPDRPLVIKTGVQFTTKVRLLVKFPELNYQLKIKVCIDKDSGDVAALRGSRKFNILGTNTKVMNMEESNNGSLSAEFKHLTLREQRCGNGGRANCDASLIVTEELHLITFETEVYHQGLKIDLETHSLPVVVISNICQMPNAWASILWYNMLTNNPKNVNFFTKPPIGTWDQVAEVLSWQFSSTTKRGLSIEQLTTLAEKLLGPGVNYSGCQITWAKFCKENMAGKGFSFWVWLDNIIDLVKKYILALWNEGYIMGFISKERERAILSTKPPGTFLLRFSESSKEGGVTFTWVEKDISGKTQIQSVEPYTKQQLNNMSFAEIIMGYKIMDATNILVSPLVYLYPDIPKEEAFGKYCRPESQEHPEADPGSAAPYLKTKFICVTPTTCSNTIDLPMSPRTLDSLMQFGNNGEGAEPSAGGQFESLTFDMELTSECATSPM

IC50 [1] | IC50 [2] | SMILES
> 3000 nM | 100 to 1000 nM | COCCCOC(=O)OCOP(=O)(OCOC(=O)OCCCOC)C(F)(F)c1ccc2sc(C(=O)N[C@H]3C[C@@H]4C[C@@H]4C[C@H]4CC[C@@H](C(=O)N5CC(C(=O)N6CCOCC6)C5)N4C3=O)cc2c1 [Compound 169, (((difluoro(2-(((3S,6S,7aS, 8aR,9aR)-3-(3-(morpholine-4-carbonyl)azetidine-1-carbonyl)-5-oxodecahydro-1H-cyclopropa [d]pyrrolo[1,2-a]azocin-6-yl)carbamoyl)benzo[b]thiophen-5-yl)methyl)phosphoryl)bis(oxy)) bis(methylene) bis(3-methoxypropyl) bis(carbonate)]
1000 to 3000 nM | < 100 nM | CC(=O)N1C[C@H](NC(=O)[C@@H]2CC[C@@H]3C[C@H]4C[C@H]4C[C@H](NC(=O)c4cc5cc(C(F)(F)P(=O)(OCOC(=O)C(C)(C)C)OCOC(=O)C(C)(C)C)ccc5s4)C(=O)N32)[C@@H](O)C1 [Compound 208, ((((2-(((3S,6S,7aS, 8aR,9aR)-3-(((3S,4S)-1-acetyl-4-hydroxy-pyrrolidin-3-yl)carbamoyl) 5-oxodecahydro-1H-cyclopropa[d]pyrrolo[1,2-a]azocin-6-yl)carbamoyl)benzo[b]thiophen-5-yl)difluoromethyl)phosphoryl)bis(oxy)) bis(methylene) bis(2,2-dimethyl-propanoate)]
> 3000 nM | 100 to 1000 nM | CC(C)(C)C(=O)OCOP(=O)(OCOC(=O)C(C)(C)C)C(F)(F)c1ccc2sc(C(=O)N[C@H]3C[C@@H]4C[C@@H]4C[C@H]4CC[C@@H](C(=O)Nc5ccc(-c6ccccc6)cc5)N4C3=O)cc2c1 [Compound 175, ((((2-(((3S,6S,7aS, 8aR,9aR)-3-([1,1′-biphenyl]-4-ylcarbamoyl)-5-oxodecahydro-1H-cyclopropa[d]pyrrolo[1,2-a]azocin-6-yl)carbamoyl)benzo[b]thiophen-5-yl)difluoro-methyl)phosphoryl)bis(oxy)) bis(methylene) bis(2,2-dimethyl-propanoate)]
> 3000 nM | 100 to 1000 nM | CC(C)(C)C(=O)SCCOP(=O)(OCCSC(=O)C(C)(C)C)C(F)(F)c1ccc2sc(C(=O)N[C@H]3C[C@@H]4C[C@@H]4C[C@H]4CC[C@@H](C(=O)N5CC(F)(c6ccccc6)C5)N4C3=O)cc2c1 [Compound 228, S,S′-((((difluoro(2-(((3S,6S,7aS, 8aR,9aR)-3-(3-fluoro-3-phenylazetidine-1-carbonyl)-5-oxodecahydro-1H-cyclopropa[d]pyrrolo[1,2-a]azocin-6-yl)carbamoyl)benzo[b]thiophen-5-yl)methyl)phosphoryl)bis(oxy))bis(ethane-2,1-diyl)) bis(2,2-dimethyl-propanethioate)]
> 3000 nM | 100 to 1000 nM | CC(C)(C)C(=O)OCOP(=O)(OCOC(=O)C(C)(C)C)C(F)(F)c1ccc2sc(C(=O)N[C@H]3C[C@@H]4C[C@@H]4C[C@H]4CC[C@@H](C(=O)N5CCN(C(=O)c6cn[nH]c6)CC5)N4C3=O)cc2c1 [Compound 211, ((((2-(((3S,6S,7aS, 8aR,9aR)-3-(4-(1H-pyrazole-4-carbonyl)piperazine-1-carbonyl)-5-oxodecahydro-1H-cyclopropa[d]pyrrolo[1,2-a]azocin-6-yl)carbamoyl)benzo[b]thiophen-5-yl)difluoromethyl)phosphoryl)bis(oxy)) bis(methylene) bis(2,2-dimethyl-propanoate)]
> 3000 nM | < 100 nM | CC(C)CC(=O)SCCOP(=O)(OCCSC(=O)CC(C)C)C(F)(F)c1ccc2sc(C(=O)N[C@H]3C[C@H]4C[C@H]4C[C@H]4CC[C@@H](C(=O)N[C@@H]5CCN(c6cccnc6)C5)N4C3=O)cc2c1 [Compound 224, S,S′-((((difluoro(2-(((3S,6S,7aR, 8aS,9aR)-5-oxo-3-(((R)-1-(pyridin-3-yl)pyrrolidin-3-yl)carbamoyl)decahydro-1H-cyclopropa[d]pyrrolo[1,2-a]azocin-6-yl)carbamoyl)benzo[b]thiophen-5-yl)methyl)phosphoryl)bis(oxy))bis(ethane-2,1-diyl)) bis(3-methylbutane thioate)]
< 100 nM | < 100 nM | CC(C)(C)C(=O)OCOP(=O)(OCOC(=O)C(C)(C)C)C(F)(F)c1ccc2sc(C(=O)N[C@H]3C[C@@H]4C[C@@H]4C[C@H]4CC[C@@H](C(=O)N5C[C@@H](C#N)[C@H](c6ccccc6)C5)N4C3=O)cc2c1 (relative stereo) [Compound 139, ((((2-(((3S,6S,7aR, 8aS,9aR)-3-((rel-trans)-3-cyano-4-phenyl-pyrrolidine-1-carbonyl)-5-oxodecahydro-1H-cyclopropa [d]pyrrolo[1,2-a]azocin-6-yl)carbamoyl)benzo[b]thiophen-5-yl)difluoro-methyl)phosphoryl)bis(oxy)) bis(methylene) bis(2,2-dimethylpro-panoate)]
> 3000 nM | 100 to 1000 nM | COCCOC(=O)OCOP(=O)(OCOC(=O)OCCOC)C(F)(F)c1ccc2sc(C(=O)N[C@H]3C[C@@H]4C[C@@H]4C[C@H]4CC[C@@H](C(=O)N5CC(C(=O)N6CCOCC6)C5)N4C3=O)cc2c1 [Compound 172, (((difluoro(2-(((3S,6S,7aS, 8aR,9aR)-3-(3-(morpholine-4-carbonyl)azetidine-1-carbonyl)-5-oxodecahydro-1H-cyclopropa [d]pyrrolo[1,2-a]azocin-6-yl)carbamoyl)benzo[b]thiophen-5-yl)methyl)phosphoryl)bis(oxy)) bis(methylene) bis(2-methoxyethyl) bis(carbonate)]
> 3000 nM | < 100 nM | CC(C)(C)C(=O)OCOP(=O)(OCOC(=O)C(C)(C)C)C(F)(F)c1ccc2sc(C(=O)N[C@H]3C[C@@H]4C[C@@H]4C[C@H]4CC[C@@H](C(=O)N5CC(n6ccnc6)C5)N4C3=O)cc2c1 [Compound 207]
100 to 1000 nM | < 100 nM | CC(C)(C)C(=O)OCOP(=O)(OCOC(=O)C(C)(C)C)[C@@H](F)c1ccc2sc(C(=O)N[C@H]3C[C@@H]4C[C@@H]4C[C@H]4CC[C@@H](C(=O)N5CC(C(=O)N6CCOCC6)C5)N4C3=O)cc2c1 (single isomer, unassigned) [Compound 183, ((((R) or (S)-fluoro(2-(((3S,6S,7aS, 8aR,9aR)-3-(3-(morpholine-4-carbonyl)azetidine-1-carbonyl)-5-oxodecahydro-1H-cyclopropa[d]pyrrolo[1,2-a]azocin-6-yl)carbamoyl)benzo[b]thiophen-5-yl)methyl)phosphoryl)bis(oxy)) bis(methylene) bis(2,2-dimethyl-propanoate)]
> 3000 nM | 100 to 1000 nM | CC(C)(CO)C(=O)SCCOP(=O)(OCCSC(=O)C(C)(C)CO)C(F)(F)c1ccc2sc(C(=O)N[C@H]3C[C@@H]4C[C@@H]4C[C@H]4CC[C@@H](C(=O)N5CC(C(=O)N6CCOCC6)C5)N4C3=O)cc2c1 [Compound 131, S,S′-((((difluoro(2-(((3S,6S,7aS, 8aR,9aR)-3-(3-(morpholine-4-carbonyl)azetidine-1-carbonyl)-5-oxodecahydro-1H-cyclopropa[d]pyrrolo[1,2-a]azocin-6-yl)carbamoyl)benzo[b]thiophen-5-yl)methyl)phosphoryl)bis(oxy))bis(ethane-2,1-diyl)) bis(3-hydroxy-2,2-dimethyl-propane-thioate)]

SMILES | IC50 [1] | IC50 [2]
CCCC(=O)SCCOP(=O)(Oc1ccccc1)C(F)(F)c1ccc2sc(C(=O)N[C@H]3C[C@@H]4C[C@@H]4C[C@H]4CC[C@@H](C(=O)N5CC(n6ccnc6)C5)N4C3=O)cc2c1 (stereo partly drawn) [Compound 198, S-(2-((((2-(((3S,6S,7aS, 8aR,9aR)-3-(3-(1H-imidazol-1-yl)azetidine-1-carbonyl)-5-oxodecahydro-1H-cyclopropa[d]pyrrolo[1,2-a]azocin-6-yl)carbamoyl)benzo[b]thiophen-5-yl)difluoromethyl) (phenoxy)phosphoryl)oxy)ethyl) butanethioate] | 1000 to 3000 nM | < 100 nM
CC(C)CC(=O)SCCOP(=O)(Oc1ccccc1)C(F)(F)c1ccc2sc(C(=O)N[C@H]3C[C@H]4C[C@H]4C[C@H]4CC[C@@H](C(=O)N5CC(n6ccnc6)C5)N4C3=O)cc2c1 (stereo partly drawn) [Compound 196, S-(2-((((2-(((3S,6S,7aR, 8aS,9aR)-3-(3-(1H-imidazol-1-yl)azetidine-1-carbonyl)-5-oxodecahydro-1H-cyclopropa[d]pyrrolo[1,2-a]azocin-6-yl)carbamoyl)benzo[b]thiophen-5-yl)difluoromethyl) (phenoxy)phosphoryl)oxy)ethyl) 3-methylbutane thioate] | > 3000 nM | < 100 nM
